The term LD50 denotes the dose expected to kill half of the subjects tested.

This data set in a line: Acute Oral Toxicity in Mice (Laboratory Strain). The note with it: mouse, in vivo, aqueous suspension, mg/kg animal body weight, observed until no deaths for at least three days. As for the experimental part: Acute Oral Toxicity in Mice (Laboratory Strain)
Groups of mice were dosed orally with graded doses of the test compound in aqueous suspension and observed until there had been no deaths for at least three days. The acute oral LD50, that is to say the dose in mg/kg animal body weight necessary to kill 50% of the mice, was determined from the numbers of animals for each dose which died during the observation period by reference to published tables.
The molecule `CC(=O)O.CC(C)(CO)C1CCN(CC#Cc2cc(C(F)(F)F)cc(C(F)(F)F)c2)CC1` [1 (as acetate), 1-(3,5-bistrifluoromethylphenyl)-3-[4-(1,1-dimethyl-2-hydroxyethyl)piperidino]prop-1-yne acetate] yielded a median lethal dose (LD50) of 95 mg/kg.

`CC(C)(CO)C1CCN(CC#Cc2cc(C(F)(F)F)cc(C(F)(F)F)c2)CC1` [1 (as free base), 1-(3,5-bistrifluoromethylphenyl)-3-[4-(1,1-dimethyl-2-hydroxyethyl)piperidino]prop-1-yne] returned an LD50 of 78 mg/kg.

`CC(C)(CO)C1CCN(CC#Cc2cc(C(F)(F)F)cc(C(F)(F)F)c2)CC1.Cl` [1 (as hydrochloride), 1-(3,5-bistrifluoromethylphenyl)-3-[4-(1,1-dimethyl-2-hydroxyethyl)piperidino]-prop-1yne hydrochloride]: the LD50 is 62 mg/kg.

The molecule `CC(C)(CO)C1CCN(CC#Cc2cc(C(F)(F)F)cc(C(F)(F)F)c2)CC1.O=[N+]([O-])O` [1 (as nitrate), 1-(3,5-bistrifluoromethylphenyl)-3-[4-(1,1-dimethyl-2-hydroxyethyl)piperidino]prop-1-yne nitrate] gave an LD50 of 72 mg/kg.

In turn, `CC(C)(CO)C1CCN(CC#Cc2cc(C(F)(F)F)cc(C(F)(F)F)c2)CC1.NS(=O)(=O)O` [1 (as sulphamate), 1-(3,5-bistrifluoromethylphenyl)-3-[4-(1,1-dimethyl-2-hydroxyethyl)piperidino]prop-1-yne sulphamate] registered an LD50 of 72 mg/kg.

In turn, `COCC(C)(C)C1CCN(CC#Cc2cc(C(F)(F)F)cc(C(F)(F)F)c2)CC1.Cl` [2 (as hydrochloride), 1-(3,5-bistrifluoromethylphenyl)-3-[4-(1,1-dimethyl-2-methoxyethyl)piperidino]prop-1-yne hydrochloride] had an LD50 of 68 mg/kg.

In turn, `CC(=O)OCC(C)(C)C1CCN(CC#Cc2cc(C(F)(F)F)cc(C(F)(F)F)c2)CC1.Cl` [3 (as hydrochloride), 1-(3,5-bistrifluoromethylphenyl)-3-[4-(1,1-dimethyl-2-acetyloxyethyl)piperidino]prop-1-yne hydrochloride] yielded an LD50 of 68 mg/kg.

As for `CC(C)(C=O)C1CCN(CC#Cc2cc(C(F)(F)F)cc(C(F)(F)F)c2)CC1.Cl` [4 (as hydrochloride), 1-(3,5-bistrifluoromethylphenyl)-3-[4-(1,1-dimethyl-2-oxoethyl)piperidino]prop-1-yne hydrochloride], the LD50 was 68 mg/kg.

The values are drawn from US4871748A, “Phenylpropargylamine derivatives” (May & Baker Limited, priority 1984, dated 1989).
